Measured values from ChEMBL document CHEMBL1944516, “Novel hybrid molecules based on 15-membered azalide as potential antimalarial agents” (Eur J Med Chem, 2012).
≈ marks a conversion by molar mass, not a printed value.

Columns and labels:
Plasmodium falciparum [1] = experiment: Ratio of azithromycin IC50 to compound IC50 for chloroquine-sensitive Plasmodium falciparum 3D7A; format: functional
Plasmodium falciparum [2] = experiment: Ratio of azithromycin IC50 to compound IC50 for chloroquine and pyrimethamine-resistant Plasmodium falciparum W2; format: functional
[3] = Ratio of drug level in blood to plasma of CD1 mouse at 12.5 mg/kg, iv and 12.5 mg/kg, po by LC-MS/Ms analysis; format: ADME, organism-based
Staphylococcus aureus = experiment: Antibacterial activity against Staphylococcus aureus ATCC 13709 by broth microdilution method; format: functional
Streptococcus pneumoniae = experiment: Antibacterial activity against clinical isolate Streptococcus pneumoniae SP030; format: functional
Streptococcus pyogenes = experiment: Antibacterial activity against clinical isolate Streptococcus pyogenes 3565; format: functional
Moraxella catarrhalis = experiment: Antibacterial activity against Moraxella catarrhalis ATCC 23246 by broth microdilution method; format: functional
Haemophilus influenzae = experiment: Antibacterial activity against Haemophilus influenzae ATCC 49247 by broth microdilution method; format: functional
Plasmodium falciparum [4] = experiment: Antimalarial activity against chloroquine-sensitive Plasmodium falciparum 3D7A infected in human A-positive erythrocytes assessed as inhibition of [3H]-hypoxanthine incorporation after 48 hrs by semi-automated microdilution technique; format: functional, organism-based
Plasmodium falciparum [5] = experiment: Antimalarial activity against chloroquine and pyrimethamine-resistant Plasmodium falciparum W2 infected in human A-positive erythrocytes assessed as inhibition of [3H]-hypoxanthine incorporation after 48 hrs by semi-automated microdilution technique; format: functional, organism-based
HepG2 = experiment: Cytotoxicity against human HepG2 cells after 24 hrs by MTS assay; format: cell-based; settings: HepG2, 24 h
Liver = experiment: Intrinsic clearance in mouse liver microsomes assessed per gram of liver at 1 uM after 60 mins by LC-MS/Ms analysis; format: ADME, Microsome; settings: 1 h
Liver microsomes [6] = experiment: Intrinsic clearance in rat liver microsomes assessed per gram of liver at 1 uM after 60 mins by LC-MS/Ms analysis; format: ADME, Microsome; settings: 1 h
Liver microsomes [7] = experiment: Intrinsic clearance in human liver microsomes assessed per gram of liver at 1 uM after 60 mins by LC-MS/Ms analysis; format: ADME, Microsome; settings: 1 h
[8] = Clearance in CD1 mouse at 12.5 mg/kg, iv and 12.5 mg/kg, po by LC-MS/Ms analysis; format: ADME, organism-based; settings: in vivo
[9] = Volume of distribution at steady state in CD1 mouse at 12.5 mg/kg, iv and 12.5 mg/kg, po by LC-MS/Ms analysis; format: ADME, organism-based; settings: in vivo, read-out: Vdss
[10] = Half life in CD1 mouse at 12.5 mg/kg, iv and 12.5 mg/kg, po by LC-MS/Ms analysis; format: ADME, organism-based; settings: in vivo
Mus musculus = experiment: Dose normalized AUC in CD1 mouse at 12.5 mg/kg, po by LC-MS/Ms analysis; format: ADME, organism-based; design: dose 12.5 mg/kg, route oral; settings: in vivo
[11] = Oral bioavailability in CD1 mouse at 12.5 mg/kg by LC-MS/Ms analysis; format: ADME, organism-based; settings: in vivo
Plasmodium falciparum [12] = experiment: Ratio of chloroquine IC50 to compound IC50 for […] Plasmodium falciparum W2; format: functional

SMILES	Ratio IC50 (Plasmodium falciparum [1])	Ratio IC50 (Plasmodium falciparum [2])	blood plasma ratio [3]	MIC (Staphylococcus aureus) [µg/mL]	MIC (Streptococcus pneumoniae) [µg/mL]	MIC (Streptococcus pyogenes) [µg/mL]	MIC (Moraxella catarrhalis) [µg/mL]	MIC (Haemophilus influenzae) [µg/mL]	IC50 (Plasmodium falciparum [4]) [nM]	IC50 (Plasmodium falciparum [5]) [nM]	IC50 (HepG2) [nM]	CLint (Liver) [mL/min/g]	CLint (Liver microsomes [6]) [mL/min/g]	CLint (Liver microsomes [7]) [mL/min/g]	clearance [8] [mL/min/kg]	Vd [9] [L/kg]	half-life [10] [h]	AUC/dose (Mus musculus) [ng·h/mL]	bioavailability [11] [%]	Ratio IC50 (Plasmodium falciparum [12])
CC[C@H]1OC(=O)[C@H](C)[C@@H](O[C@H]2C[C@@](C)(OC)[C@@H](O)[C@H](C)O2)[C@H](C)[C@@H](O[C@@H]2O[C@H](C)C[C@H](N(C)CCCNC(=O)CCCNc3ccnc4cc(Cl)ccc34)[C@H]2O)[C@](C)(O)C[C@@H](C)CN(C)[C@H](C)[C@@H](O)[C@]1(C)O	56	150	1	> 64	4 (≈ 3.85 µM)	16 (≈ 15.4 µM)	4 (≈ 3.85 µM)	> 64	77	48	> 50000	< 0.6	< 0.6	< 0.6	47.7	116	63.9	13.28	5	9
CC[C@H]1OC(=O)[C@H](C)[C@@H](O[C@H]2C[C@@](C)(OC)[C@@H](O)[C@H](C)O2)[C@H](C)[C@@H](O[C@@H]2O[C@H](C)C[C@H](N(C)C(=O)CCCNc3ccnc4cc(Cl)ccc34)[C@H]2O)[C@](C)(O)C[C@@H](C)CN(C)[C@H](C)[C@@H](O)[C@]1(C)O	111	29	–	> 64	8 (≈ 8.15 µM)	16 (≈ 16.3 µM)	4 (≈ 4.07 µM)	> 64	104	93	> 50000	–	–	–	–	–	–	–	–	5
CC[C@H]1OC(=O)[C@H](C)[C@@H](O[C@H]2C[C@@](C)(OC)[C@@H](O)[C@H](C)O2)[C@H](C)[C@@H](O[C@@H]2O[C@H](C)C[C@H](N(C)C)[C@H]2O)[C@](C)(O)C[C@@H](C)CN(C)[C@H](C)[C@@H](O)[C@]1(C)O [AZITHROMYCIN]	–	–	–	1 (≈ 1.34 µM)	0.06 (≈ 0.0801 µM)	0.125 (≈ 0.167 µM)	0.06 (≈ 0.0801 µM)	2 (≈ 2.67 µM)	11500	2680	203000	–	–	–	–	–	–	–	–	–
CC[C@H]1OC(=O)[C@H](C)[C@@H](O)[C@H](C)[C@@H](O[C@@H]2O[C@H](C)C[C@H](N(C)CCCNC(=O)CCCNc3ccnc4cc(Cl)ccc34)[C@H]2O)[C@](C)(O)C[C@@H](C)CN(C)[C@H](C)[C@@H](O)[C@]1(C)O	9	9	–	> 64	> 64	> 64	> 64	> 64	636	295	> 50000	–	–	–	–	–	–	–	–	–
CC[C@H]1OC(=O)[C@H](C)[C@@H](O[C@H]2C[C@@](C)(OC)[C@@H](O)[C@H](C)O2)[C@H](C)[C@@H](O[C@@H]2O[C@H](C)C[C@H](N(C)CCCNc3ccnc4cc(Cl)ccc34)[C@H]2O)[C@](C)(O)C[C@@H](C)CN(C)[C@H](C)[C@@H](O)[C@]1(C)O	–	–	–	> 64	8 (≈ 8.39 µM)	16 (≈ 16.8 µM)	1 (≈ 1.05 µM)	> 64	–	–	3000	–	–	–	–	–	–	–	–	–
CC[C@H]1OC(=O)[C@H](C)[C@@H](O[C@H]2C[C@@](C)(OC)[C@@H](O)[C@H](C)O2)[C@H](C)[C@@H](O[C@@H]2O[C@H](C)C[C@H](N(C)C(=O)CNc3ccnc4cc(Cl)ccc34)[C@H]2O)[C@](C)(O)C[C@@H](C)CN(C)[C@H](C)[C@@H](O)[C@]1(C)O	–	–	–	16 (≈ 16.8 µM)	2 (≈ 2.1 µM)	4 (≈ 4.19 µM)	8 (≈ 8.39 µM)	> 64	10	13	27000	–	–	–	–	–	–	–	–	–
CC[C@H]1OC(=O)[C@H](C)[C@@H](O)[C@H](C)[C@@H](O[C@@H]2O[C@H](C)C[C@H](N(C)CCCNc3ccnc4cc(Cl)ccc34)[C@H]2O)[C@](C)(O)C[C@@H](C)CN(C)[C@H](C)[C@@H](O)[C@]1(C)O	–	–	–	> 64	> 64	> 64	32 (≈ 40.2 µM)	> 64	–	–	14000	–	–	–	–	–	–	–	–	–
CC[C@H]1OC(=O)[C@H](C)[C@@H](O[C@H]2C[C@@](C)(OC)[C@@H](O)[C@H](C)O2)[C@H](C)[C@@H](O[C@@H]2O[C@H](C)C[C@H](N(C)Cc3cn(CCCNc4ccnc5cc(Cl)ccc45)nn3)[C@H]2O)[C@](C)(O)C[C@@H](C)CN(C)[C@H](C)[C@@H](O)[C@]1(C)O	–	–	–	16 (≈ 15.5 µM)	0.5 (≈ 0.483 µM)	0.5 (≈ 0.483 µM)	2 (≈ 1.93 µM)	> 64	–	–	–	–	–	–	–	–	–	–	–	–
